Data from US12594268B2, “Methods of treating Fabry disease in patients having a mutation in the GLA gene” (Amicus Therapeutics, Inc., priority 2018, dated 2026).
Positions count from the first letter of the chain named.

Columns and labels:
Type in all cases: cell-based
[1] = target: T1, α-Gal A mutant form N34H (Homo sapiens, UniProt P06280, N34H); test: α-Gal A activity in lysates of transfected HEK-293 cells, N34H
T1 construct: expressed in transfected cells; host or cells: HEK-293
T1 sequence (P06280 32-429 N34H): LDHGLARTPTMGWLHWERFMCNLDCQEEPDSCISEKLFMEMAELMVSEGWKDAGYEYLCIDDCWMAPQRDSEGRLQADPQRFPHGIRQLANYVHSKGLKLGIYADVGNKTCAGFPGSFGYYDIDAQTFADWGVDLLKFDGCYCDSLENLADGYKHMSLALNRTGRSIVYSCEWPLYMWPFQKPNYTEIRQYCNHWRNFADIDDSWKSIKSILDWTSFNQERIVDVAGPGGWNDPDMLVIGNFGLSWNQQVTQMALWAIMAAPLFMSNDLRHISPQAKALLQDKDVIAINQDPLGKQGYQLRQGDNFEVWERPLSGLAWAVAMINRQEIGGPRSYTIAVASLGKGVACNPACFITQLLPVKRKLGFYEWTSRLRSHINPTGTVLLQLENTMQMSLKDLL
Experimental: (§1) Baseline and 10 μM migalastat α-Gal A activity: Differences in the α-Gal A activity between lysates incubated in the absence and presence of 10 μM migalastat were determined using a one-tailed, Mann Whitney U test; an increase at 10 μM migalastat with a p<0.05 was considered significant.
(§2) 10 μM migalastat α-Gal A activity (% WT)=(α-Gal A activity in mutant transfected cell lysates incubated with 10 μM migalastat÷α-Gal A activity in wild-type transfected cell lysates without migalastat)*100.
(§3) Absolute increase (% WT)=is the 10 μM migalastat α-Gal A activity (% WT) minus the baseline α-Gal A activity (% WT).
(§4) Relative increase is the 10 μM migalastat α-Gal A activity in mutant transfected cell lysates÷baseline α-Gal A activity in mutant transfected cell lysates incubated without migalastat.

[2] = target: T2, α-Gal A mutant form Y88S (Homo sapiens, UniProt P06280, Y88S); test: α-Gal A activity in lysates of transfected HEK-293 cells, Y88S; settings: Y-88S
T2 construct: expressed in transfected cells; host or cells: HEK-293
T2 sequence (P06280 32-429 Y88S): T1 sequence (P06280 32-429 N34H) with H3N, Y57S
Experimental: as §1, §2, §3, §4

[3] = target: T3, α-Gal A mutant form S238G (Homo sapiens, UniProt P06280, S238G); test: α-Gal A activity in lysates of transfected HEK-293 cells, S238G
T3 construct: expressed in transfected cells; host or cells: HEK-293
T3 sequence (P06280 32-429 S238G): T1 sequence (P06280 32-429 N34H) with H3N, S207G
Experimental: as §1, §2, §3, §4

[4] = target: T4, α-Gal A mutant form W204G (Homo sapiens, UniProt P06280, W204G); test: α-Gal A activity in lysates of transfected HEK-293 cells, W204G
T4 construct: expressed in transfected cells; host or cells: HEK-293
T4 sequence (P06280 32-429 W204G): T1 sequence (P06280 32-429 N34H) with H3N, W173G
Experimental: as §1, §2, §3, §4

[5] = target: T5, α-Gal A mutant form S62delinsLA (Homo sapiens, UniProt P06280, INS61L/S62A); test: α-Gal A activity in lysates of transfected HEK-293 cells, S62delinsLA
T5 construct: expressed in transfected cells; host or cells: HEK-293
T5 sequence (P06280 with tags, fused parts or gaps INS61L/S62A): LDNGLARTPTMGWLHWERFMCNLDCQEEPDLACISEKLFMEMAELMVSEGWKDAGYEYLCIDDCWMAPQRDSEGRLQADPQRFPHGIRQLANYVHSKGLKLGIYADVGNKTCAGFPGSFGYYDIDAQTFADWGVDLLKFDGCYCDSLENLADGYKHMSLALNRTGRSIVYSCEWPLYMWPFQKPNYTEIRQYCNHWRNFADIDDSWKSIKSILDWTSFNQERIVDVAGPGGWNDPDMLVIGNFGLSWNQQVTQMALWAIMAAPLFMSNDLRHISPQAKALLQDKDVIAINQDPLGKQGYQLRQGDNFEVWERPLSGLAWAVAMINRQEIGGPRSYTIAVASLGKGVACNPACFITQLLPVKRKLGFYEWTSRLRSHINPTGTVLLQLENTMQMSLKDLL
Experimental: as §1, §2, §3, §4

[6] = 10 μM migalastat minus baseline (baseline BLD)
[7] = HEK-293 lysates, 10 μM migalastat, 5 days, mean ± SEM
[8] = 10 μM migalastat minus baseline
[9] = 10 μM migalastat ÷ baseline activity

OC[C@H]1NC[C@H](O)[C@@H](O)[C@H]1O [migalastat, (2R,3S,4R,5S)-2-(hydroxymethyl) piperdine-3,4,5-triol]
Absolute increase (% WT) [1, 6]: 3.6 % WT
10 μM migalastat α-Gal A activity (% WT) [1, 7]: 3.6 ± 0.2 % WT
10 μM migalastat α-Gal A activity ([1]; HEK-293 lysates, 10 μM migalastat, 5 days, mean ± SEM, baseline BLD): 1414 ± 100 nmol/mg/h
Absolute increase (% WT) [2, 8]: 10.3 % WT
Relative increase [2, 9]: 3.67
10 nM migalastat α-Gal A activity ([2]; HEK-293 lysates, 10 nM migalastat as printed, 5 days, mean ± SEM): 5542 ± 376 nmol/mg/h
10 μM migalastat α-Gal A activity (% WT) [2, 7]: 14.1 ± 1.3 % WT
Absolute increase (% WT) [3, 8]: 67.7 % WT
Relative increase [3, 9]: 4.26
10 μM migalastat α-Gal A activity [3, 7]: 25106 ± 1611 nmol/mg/h
10 μM migalastat α-Gal A activity (% WT) [3, 7]: 86.4 ± 7.2 % WT
Absolute increase (% WT) [4, 6]: 6.5 % WT
10 nM migalastat α-Gal A activity ([4]; HEK-293 lysates, 10 nM migalastat as printed, 5 days, mean ± SEM, baseline BLD): 1695 ± 198 nmol/mg/h
10 μM migalastat α-Gal A activity (% WT) [4, 7]: 6.5 ± 0.7 % WT
Absolute increase (% WT) [5, 8]: 20.9 % WT
Relative increase [5, 9]: 50.92
10 μM migalastat α-Gal A activity [5, 7]: 8115 ± 810 nmol/mg/h
10 μM migalastat α-Gal A activity (% WT) [5, 7]: 21.3 ± 1.7 % WT
